This assay is described as follows: Positive allosteric modulator activity at rat cortical membrane GABA-B receptor incubated for 60 min by [35S]GTPgammaS binding assay. It counts as cell membranes, Cortex. In general terms: GTPγS resists hydrolysis and so accumulates on activated G proteins.

SMILES strings stand for the structures.

One may read the pEC50 as −log10 of the EC50, conventionally taken in molar units. Low readings indicate a high EC50, high ones a low EC50. With `Cc1cc(N2CCCCC2CCO)n2nc(-c3ccc(F)cc3)cc2n1` (racemic), the pEC50 was found to be 5.93. `Cc1cc(N2CCOCC2CCO)n2nc(-c3ccc(Cl)cc3)cc2n1` (racemic) yielded a pEC50 of 5.61. For `Cc1cc(N2CCCCC2C(=O)O)n2nc(-c3ccc(Cl)cc3)cc2n1` (racemic) the value was 5.97; for `CC(=O)Nc1ccccc1-c1cc(C)nc2cc(-c3ccc(Cl)cc3)nn12`, 6.17. Compound `CC(C)(C)c1cc(C(C)(C)C)c2c(c1)C(O)(C(F)(F)F)C(=O)O2` (racemic) yielded a pEC50 of 6.78.

Turning to `Cc1nc(N2CCCCC2CCO)n2nc(-c3ccc(Cl)cc3)cc2n1` (racemic), the pEC50 was found to be 6.63. The pEC50 values of the last two compounds are within 0.2 log units of each other.

Compound `Cc1nc2cc(-c3ccc(Cl)cc3)nn2c(N2CCOCC2CCO)c1C#N` (racemic) showed a pEC50 of 5.78. For the compound `CSc1c(C)nc2cc(-c3ccc(Cl)cc3)nn2c1N1CCC[C@@H](C(=O)O)C1`, the negative-log EC50 (pEC50) came to 7.15. In turn, `COc1c(C)nc2cc(-c3ccc(Cl)cc3)nn2c1N1CCCCC1CCO` (racemic) came in with a pEC50 of 7.05.

Take `CSc1c(C)nc2cc(-c3ccc(Cl)cc3)nn2c1N1CCC[C@H](C(=O)O)C1`: the pEC50 is reported as 6.75. For `COc1nn(-c2ccc(F)c(NC(C)=O)c2)c(=O)n(Cc2ccc(Cl)c(F)c2)c1=O` the value was 6.89; for `COc1ccc(-c2cc3nc(C)cc(N4CCCCC4CCO)n3n2)cc1` (racemic), 5.25; for `Cc1cc(N2CCCC(C(=O)O)C2)n2nc(-c3ccc(Cl)cc3)cc2n1` (racemic), 5.32. As for `Cc1cc(N2CCCCC2CCO)n2nc(-c3ccc(Cl)cc3)cc2n1` (racemic), the pEC50 was determined as 6.21. For `Cc1cc(N2CCCCC2C(N)=O)n2nc(-c3ccc(Cl)cc3)cc2n1` (racemic) the value was 6.55; for `Cc1cc(N2CCCCC2CCO)n2nc(-c3cccc(Cl)c3)cc2n1` (racemic), 5.3; for `Cc1ncc(-c2ccc(C(F)(F)F)cc2)c(N[C@@H]2C[C@H]3CC[C@@H]2C3)n1`, 6.13. Under `CC(=O)Nc1cccc(-c2c(S(C)(=O)=O)c(C)nc3cc(-c4ccc(Cl)cc4)nn23)c1` stands 6.42; under `CSc1c(C)nc2cc(-c3ccc(Cl)cc3)nn2c1-c1cccc(NC(C)=O)c1`, 7.75. For `Cc1nc2ccc(I)cc2c(N2CCCCC2)c1S(C)(=O)=O` the value was 5.83. In turn, `Cc1cc(N2CCCCC2CCO)n2nc(Cc3ccccc3)cc2n1` (racemic) gave a negative logarithm of the EC50 (pEC50) of 5.24. `CSc1c(C)nc2cc(-c3ccc(Cl)cc3)nn2c1N1CCCC(C(=O)O)C1` (racemic) displayed a pEC50 of 6.93. Consider `CCOC(=O)C1CCCN(c2cc(C)nc3cc(-c4ccc(Cl)cc4)nn23)C1` (racemic), for which the pEC50 was 5.85. For `CC(=O)Nc1cccc(-c2cc(C)nc3cc(-c4ccc(Cl)cc4)nn23)c1` the value was 6.6; for `Cc1cc(N2CCCCC2CCO)n2nc(-c3ccccc3)cc2n1` (racemic), 5.91; for `Cc1nc(N2CCCCC2CCO)c2nc(-c3ccc(Cl)cc3)cn2n1` (racemic), 6.24.

`CC(=O)Nc1cccc(-c2c([S+](C)[O-])c(C)nc3cc(-c4ccc(Cl)cc4)nn23)c1` (stereo not given) yielded a pEC50 of 6.19. For `Cc1cc(N2CCCCC2CCO)c2cc(-c3ccc(Cl)cc3)oc2n1` (racemic) the value was 5.92; for `COc1c(C)nc2cc(-c3ccc(Cl)cc3)nn2c1N1CCCC(C(=O)O)C1` (racemic), 5.69. The compound `Cc1cc(NC2CCCNC2=O)n2nc(-c3ccc(Cl)cc3)cc2n1` (racemic) gave a pEC50 of 5.4. As to `CCOC(=O)C1=C(N2CCOCC2CCO)N2N=C(c3ccc(Cl)cc3)CC2N=C1C` (racemic), the negative logarithm of the EC50 (pEC50) amounted to 6.09. Under `Cc1cc(NC2CCCCNC2=O)n2nc(-c3ccc(Cl)cc3)cc2n1` (racemic) stands 5.89; under `Cc1nc(N2CCCCC2CCO)c2sc(-c3ccc(Cl)cc3)cc2n1` (racemic), 6.59; under `Cc1cc(N2CCCCC2CCO)c2sc(-c3ccc(Cl)cc3)cc2n1` (racemic), 6.22. In the case of `Cc1cc(N2CCCCC2CCO)n2nc(-c3ccc(C#N)cc3)cc2n1` (racemic), the pEC50 was 5.29.

The values are drawn from ChEMBL document CHEMBL5344462, “Novel-Type GABAB PAMs: Structure-Activity Relationship in Light of the Protein Structure” (ACS Med Chem Lett, 2024).
